{
  "source": "patent US6838465B2",
  "about": "“N-acyltetrahydroisoquinoline derivatives” (Banyu Pharmaceutical Co., Ltd., priority 2000, dated 2005)",
  "key": {"human OX1 receptor": {"target": "T1, human OX1 receptor (Homo sapiens, UniProt O43613)", "T1 construct": "expressed in transfected cells", "T1 sequence (O43613 1-425)": "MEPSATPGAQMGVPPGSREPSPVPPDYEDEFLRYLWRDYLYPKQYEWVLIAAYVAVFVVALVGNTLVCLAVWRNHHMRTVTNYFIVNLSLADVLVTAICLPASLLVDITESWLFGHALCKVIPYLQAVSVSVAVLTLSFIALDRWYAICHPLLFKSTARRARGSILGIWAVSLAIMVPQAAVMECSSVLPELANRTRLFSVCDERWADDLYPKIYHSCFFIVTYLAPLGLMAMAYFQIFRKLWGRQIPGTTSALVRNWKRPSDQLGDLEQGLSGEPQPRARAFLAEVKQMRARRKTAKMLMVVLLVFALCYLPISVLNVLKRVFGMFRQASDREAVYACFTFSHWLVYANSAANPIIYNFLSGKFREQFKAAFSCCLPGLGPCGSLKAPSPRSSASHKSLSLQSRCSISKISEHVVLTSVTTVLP", "assay": "Inhibition of orexin A-induced increase in intracellular calcium concentration (FLIPR), OX1 receptor expressing CHO-K1 cells", "type": "cell-based", "details": "CHO-K1 cells stably expressing human OX1 receptor; 0.3 nM orexin A; compound added 5 minutes before; fluo-3 AM; read-out: 50% Inhibition concentration, OX1 receptor", "source_text": "(§1) A cDNA sequence encoding human orexin OX1 receptor or OX2 receptor (see GenBank, accession number AF 041243 and AF 041245) was cloned into the EcoRV-EcoRI site of a mamal expressed plasmid vector pIRESIneo (made by Clontech Laboratories, Inc.) and the PmlI-XbaI site of a mamal expressed plasmid vector pEF/myc/cyto (made by Invitrogen Corp.). The resulting vectors were respectively transfected into Chinese hamster's ovarian cells CHO-K1 (Americam Type Culture Collection, ATCC number CCL-61). Then, cells having resistance to 2 mg/ml of Geneticin (G418, made by Life Technologies, Inc.) were selected to obtain a cell line stably expressing a human OX1 receptor and a cell line stably expressing a human OX2 receptor. The OX1 receptor or OX2 receptor stably expressing cells were made to take up fluo-3, AM (made by Molecualr Probes Inc.), a fluorescent indicator of calcium concentration, and then 0.3 nM of orexin A was added to a suspension of the cells in an assay buffer (Hank's […] salt solution adjusted to pH 7.4 and containing 20 mM HEPES, 0.5% bovine serum albumin and 2.5 mM probenecid), and the change of the intracellular calcium concentration was measured with time lapse using FLIPR (Fluorometric Imaging Plate Reader, made by Molecular Devices Corp.). The effect of a test compound influencing the increase in the intracellular calcium concentration was assayed by adding the test compound in various concentrations to the assay solutions, 5 minutes before the addition of orexin A, and the 50% inhibition concentration (IC50 value) of the test compound against the increase in intracellular calcium concentration caused by the addition of 0.3 nM orexin A was determined (Table 1)."}, "human OX2 receptor": {"target": "T2, human OX2 receptor (Homo sapiens, UniProt O43614)", "T2 construct": "expressed in transfected cells", "T2 sequence (O43614 1-444)": "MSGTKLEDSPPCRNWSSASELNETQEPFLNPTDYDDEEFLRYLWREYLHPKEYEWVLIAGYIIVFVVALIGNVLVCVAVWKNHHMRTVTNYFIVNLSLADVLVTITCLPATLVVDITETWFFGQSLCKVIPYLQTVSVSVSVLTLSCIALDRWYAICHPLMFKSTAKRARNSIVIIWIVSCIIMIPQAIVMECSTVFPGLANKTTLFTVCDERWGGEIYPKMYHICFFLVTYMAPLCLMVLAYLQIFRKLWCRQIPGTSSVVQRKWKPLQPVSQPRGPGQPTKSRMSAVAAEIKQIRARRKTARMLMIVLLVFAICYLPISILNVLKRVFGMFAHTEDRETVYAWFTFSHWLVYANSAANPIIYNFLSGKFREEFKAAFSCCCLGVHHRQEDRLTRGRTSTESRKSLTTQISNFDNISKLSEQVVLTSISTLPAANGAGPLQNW", "assay": "Inhibition of orexin A-induced increase in intracellular calcium concentration (FLIPR), OX2 receptor expressing CHO-K1 cells", "type": "cell-based", "details": "CHO-K1 cells stably expressing human OX2 receptor; 0.3 nM orexin A; compound added 5 minutes before; fluo-3 AM; read-out: 50% Inhibition concentration, OX2 receptor", "source_text": "as §1"}},
  "data": [
    {"compound": "COc1cc2c(cc1OC)CN(C(=O)[C@@H](NCc1ccncc1)C(C)(C)C)CC2", "note": "[Example 6, (2S)-2-(N-4-pyridylmethyl)amino-1-(6,7-dimethoxy-1,2,3,4-tetrahydroisoquinolin-2yl)-3,3-dimethylbutan-1-one]", "values": [
      {"measurement": "IC50", "setting": "human OX1 receptor", "result": 24000, "unit": "nM"},
      {"measurement": "IC50", "setting": "human OX2 receptor", "result": 110, "unit": "nM"}
    ]},
    {"compound": "COc1cc2c(cc1OC)CN(C(=O)C(Cc1ccccc1)NC(=O)c1cc(Cl)cc(Cl)c1)CC2", "note": "(centres unmarked) [Example 4, N-[2-(6,7-dimethoxy-1,2,3,4-tetrahydroisoquinolin-2-yl)-2-oxo-1-benzylethyl](3,5-dichlorophenyl)carboxyamide]", "values": [
      {"measurement": "IC50", "setting": "human OX1 receptor", "result": 5300, "unit": "nM"},
      {"measurement": "IC50", "setting": "human OX2 receptor", "result": 31, "unit": "nM"}
    ]},
    {"compound": "COc1cc2c(cc1OC)CN(C(=O)[C@@H](NCc1nccs1)C(C)(C)C)CC2", "note": "[Example 8, (2S)-1-(6,7-dimethoxy-1,2,3,4-tetrahydroisoquinolin-2-yl)-3,3-dimethyl-2-((2-thiazolylmethyl)amino)butan-1-one]", "values": [
      {"measurement": "IC50", "setting": "human OX1 receptor", "result": 17000, "unit": "nM"},
      {"measurement": "IC50", "setting": "human OX2 receptor", "result": 49, "unit": "nM"}
    ]},
    {"compound": "COc1cc2c(cc1OC)CN(C(=O)[C@@H](NCc1cccc(Br)c1)C(C)(C)C)CC2", "note": "[Example 23, (2S)-2-(3-bromobenzylamino)-1-(6,7-dimethoxy-1,2,3,4-tetrahydroisoquinolin-2-yl)-3,3-dimethylbutan-1-one]", "values": [
      {"measurement": "IC50", "setting": "human OX1 receptor", "result": 4400, "unit": "nM"},
      {"measurement": "IC50", "setting": "human OX2 receptor", "result": 140, "unit": "nM"}
    ]}
  ]
}
